Experimental data: publication PMC5085761 (International Journal of Molecular Sciences, 2016)

Tests used:
Assay type in all cases: in vitro ADME
OATP1B1 [1] = molecular target: T1, OATP1B1 (Homo sapiens, UniProt Q9Y6L6); assay: [14C]fluciclovine uptake by OATP1B1-expressing cells; conditions: OATP1B1 cells vs mock cells
T1 construct: host or cells: HEK293
T1 sequence (Q9Y6L6 1-691): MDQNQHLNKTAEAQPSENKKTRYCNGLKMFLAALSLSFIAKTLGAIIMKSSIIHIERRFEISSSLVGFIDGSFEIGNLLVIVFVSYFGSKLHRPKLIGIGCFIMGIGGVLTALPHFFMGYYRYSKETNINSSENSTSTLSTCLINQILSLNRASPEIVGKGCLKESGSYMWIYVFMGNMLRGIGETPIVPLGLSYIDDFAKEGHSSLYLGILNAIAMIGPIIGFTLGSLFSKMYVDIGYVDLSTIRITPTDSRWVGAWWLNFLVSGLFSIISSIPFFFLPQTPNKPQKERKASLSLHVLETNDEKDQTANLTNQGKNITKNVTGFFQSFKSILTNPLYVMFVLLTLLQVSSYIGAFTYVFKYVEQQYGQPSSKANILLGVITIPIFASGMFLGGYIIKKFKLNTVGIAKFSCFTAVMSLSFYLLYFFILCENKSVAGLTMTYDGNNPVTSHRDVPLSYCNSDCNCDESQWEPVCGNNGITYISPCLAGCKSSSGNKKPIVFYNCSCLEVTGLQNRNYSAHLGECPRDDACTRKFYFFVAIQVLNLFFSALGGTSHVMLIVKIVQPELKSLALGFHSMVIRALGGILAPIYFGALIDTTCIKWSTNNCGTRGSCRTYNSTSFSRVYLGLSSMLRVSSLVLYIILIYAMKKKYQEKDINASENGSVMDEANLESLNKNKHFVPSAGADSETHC
Experimental: (§1) For the SLC transporter experiments, Mock Flp-in-293 cells (Flp/mock), OAT1-expressing Flp-in-293 cells (Flp/OAT1), mock HEK293 cells (HEK/mock), and OATP1B3-expressing HEK293 cells (HEK/OATP1B3) were obtained from Kanazawa University (Ishikawa, Japan). Briefly, Flp-in-293 and HEK293 cells were transfected with the appropriate plasmid DNA and selected using antibiotics (hygromycin or G-418). All cell lines were cultured in DMEM (Life Technologies Japan) supplemented with 10% (v/v) fetal bovine serum (American Type Culture Collection) and antibiotics (100 U/mL penicillin and 100 μg/mL streptomycin (Life Technologies Japan) for mock cells, 0.2 mg/mL hygromycin for Flp/OAT1 cells, and 1.2 mg/mL G-418 (Roche Diagnostics K.K., Tokyo, Japan) for HEK/OATP1B3 cells) at 37 °C under an atmosphere containing 5% CO2. […]
(§2) The experiments were performed as described previously, with minor modifications. […] The cells were lysed in 0.3 mL of 0.1N NaOH at room temperature, after which the radioactivity of each aliquot was measured as described above. The protein concentration of the cell lysate was determined with a VersaMax microplate reader (Molecular Devices Japan K.K., Osaka, Japan) or SpectraMax i3x (Molecular Devices Japan K.K.; only for OATP1B1) using a BCA Protein Assay Kit (Thermo Fisher Scientific, Kanagawa, Japan). Tracer uptake was expressed as pmol/mg protein. […]

human P-gp = molecular target: T2, human P-gp (Homo sapiens, UniProt P08183); assay: Inhibition of tracer uptake in P-gp-expressing vesicles; conditions: tracer [3H]digoxin 1 µM
T2 construct: purchased GenoMembrane Co., Ltd. (Kanagawa, Japan); host or cells: Sf9
Experimental: For ABC transporters, experimental kits containing Sf9-derived vesicles with high expression levels of human P-gp, MRP4, BCRP, and each ABC transporter (including buffer, ATP/AMP solution, and glutathione) were purchased from GenoMembrane Co., Ltd. (Kanagawa, Japan).
Vesicular transport assays were carried out according to the manufacturer’s protocol. […] The reaction was started by suspending 50 μg of vesicles (10 μL) in 40 μL of the reaction buffer. After incubation for an appropriate period of time, the reaction was stopped by the addition of ice-cold stop buffer (40 mM MOPS-Tris and 70 mM KCl; pH 7.0), after which the solution was filtered through a 0.45 μm HA filter (Millipore Corp., Billerica, MA, USA) using suction, and was washed twice in 5 mL of ice-cold stop buffer. The radioactivity of the filter was measured with a Tri-Carb 2910TR liquid scintillation counter (PerkinElmer) using Ultima Gold (PerkinElmer). The amount of tracer uptake was normalized to the membrane protein amount described in the product information sheets.

OATP1B1 [2] = molecular target: T1, OATP1B1; assay: Inhibition of tracer uptake in OATP1B1-expressing cells; conditions: OATP1B1, tracer [3H]E2G 0.1 µM
Experimental: as §1, §2

T2 sequence (P08183 whole entry): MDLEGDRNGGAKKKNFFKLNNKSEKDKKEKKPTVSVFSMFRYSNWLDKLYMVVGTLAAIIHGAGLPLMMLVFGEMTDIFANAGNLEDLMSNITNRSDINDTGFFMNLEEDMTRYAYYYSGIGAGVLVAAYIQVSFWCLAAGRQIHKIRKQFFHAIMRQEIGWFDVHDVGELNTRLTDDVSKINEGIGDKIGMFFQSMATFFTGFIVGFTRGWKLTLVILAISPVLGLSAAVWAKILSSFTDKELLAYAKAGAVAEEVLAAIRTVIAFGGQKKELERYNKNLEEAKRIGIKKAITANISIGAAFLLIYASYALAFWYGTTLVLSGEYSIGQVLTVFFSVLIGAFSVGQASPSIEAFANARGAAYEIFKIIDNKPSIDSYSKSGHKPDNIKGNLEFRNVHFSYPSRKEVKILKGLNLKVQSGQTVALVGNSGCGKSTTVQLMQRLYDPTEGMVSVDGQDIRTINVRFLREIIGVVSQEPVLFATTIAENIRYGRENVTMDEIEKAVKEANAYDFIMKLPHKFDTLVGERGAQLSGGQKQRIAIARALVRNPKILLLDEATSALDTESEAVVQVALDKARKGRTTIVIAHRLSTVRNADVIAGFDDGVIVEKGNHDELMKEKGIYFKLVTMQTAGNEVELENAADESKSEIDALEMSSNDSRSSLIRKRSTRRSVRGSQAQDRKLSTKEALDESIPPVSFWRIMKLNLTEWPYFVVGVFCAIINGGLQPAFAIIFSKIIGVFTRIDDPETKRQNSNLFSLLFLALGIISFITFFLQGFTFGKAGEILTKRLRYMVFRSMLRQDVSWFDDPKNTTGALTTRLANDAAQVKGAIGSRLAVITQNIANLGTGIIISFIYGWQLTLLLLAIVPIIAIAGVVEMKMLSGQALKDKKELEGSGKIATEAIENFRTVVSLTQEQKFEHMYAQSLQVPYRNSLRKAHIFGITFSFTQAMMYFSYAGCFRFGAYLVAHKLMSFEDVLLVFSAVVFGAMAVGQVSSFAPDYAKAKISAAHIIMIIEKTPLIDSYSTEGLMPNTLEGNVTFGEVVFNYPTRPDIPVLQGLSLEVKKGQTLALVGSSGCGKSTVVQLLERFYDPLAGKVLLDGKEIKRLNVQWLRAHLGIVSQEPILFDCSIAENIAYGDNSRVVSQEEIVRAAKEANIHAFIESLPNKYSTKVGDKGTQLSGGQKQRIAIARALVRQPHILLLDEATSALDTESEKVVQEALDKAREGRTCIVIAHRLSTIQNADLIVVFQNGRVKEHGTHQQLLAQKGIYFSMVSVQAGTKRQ

Compound	drug transporter-mediated uptake (OATP1B1 [1])	IC50 (human P-gp)	IC50 (OATP1B1 [2])
N[14C]1(C(=O)O)CC(F)C1 (stereo not drawn) [[^14C]fluciclovine, trans-1-amino-3-fluoro[1-^14C]cyclobutanecarboxylic acid]	negligible		
N[C@]1(C(=O)O)C[C@@H](F)C1 [fluciclovine]		2.95 ± 2.56 mM	5.41 ± 2.49 mM
